Experimental findings from patent US20250163068A1, “COMPOUNDS AND THEIR METHODS OF USE” (Praxis Precision Medicines, Inc., priority 2016, published 2025) are described below.

Chain of CYP1A2 (P05177 whole entry): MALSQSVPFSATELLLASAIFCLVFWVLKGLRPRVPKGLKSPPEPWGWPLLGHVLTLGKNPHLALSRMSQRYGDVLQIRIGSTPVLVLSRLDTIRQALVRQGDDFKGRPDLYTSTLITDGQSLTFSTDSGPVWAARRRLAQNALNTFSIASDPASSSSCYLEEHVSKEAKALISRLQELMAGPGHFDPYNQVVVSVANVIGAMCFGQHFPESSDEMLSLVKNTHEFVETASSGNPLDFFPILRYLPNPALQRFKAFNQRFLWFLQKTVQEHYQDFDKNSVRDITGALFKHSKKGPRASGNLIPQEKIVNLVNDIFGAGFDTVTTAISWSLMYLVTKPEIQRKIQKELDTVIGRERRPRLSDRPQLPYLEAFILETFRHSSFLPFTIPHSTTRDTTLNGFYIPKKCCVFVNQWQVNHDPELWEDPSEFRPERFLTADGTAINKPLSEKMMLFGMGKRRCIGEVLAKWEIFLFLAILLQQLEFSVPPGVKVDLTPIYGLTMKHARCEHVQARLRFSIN

In one data set the target is human Nav1.6 (hNav1.6) (Homo sapiens (Human), UniProt Q9UQD0). The data set can be described thus: Inhibition of late sodium current (INaL) at hNav1.6, PatchXpress electrophysiology. The format is cell-based. The following applies: 1 μM compound; HEK-293 cells expressing recombinant hNav1.6; late current evoked by 300 nM ATX-II. As to the method: Functional characterization of exemplary compounds to modulate INaL expressed by the Nav1.6 voltage-gated sodium channel was accomplished using the PatchXpress™ high throughput electrophysiology platform (Molecular Devices, Sunnyvale, CA). HEK-293 cells expressing recombinant, human Nav1.6 (hNav1.6)were grown in DMEM/high-glucose Dulbecco's modified, 10% FBS, 2 mM sodium pyruvate, 10 mM HEPES and 400 μg/mL G418. Cells were grown to 50%-80% confluency prior to harvesting. […] The onboard liquid handling facility of the PatchXpress was used for dispensing cells and applying test compounds. Nav late currents were evoked by the application of 300 nM ATX-II. […] INaL amplitude and stability were determined by analyzing the mean current amplitude over the final 20 ms of the test pulse. […] Percent steady-state inhibition of INaL was calculated as: [(INaL_compound)/(INaL_control)]*100, where INaL_compound and INaL_control represent INaL recorded in the presence or absence of compound, respectively.
Chain of human Nav1.6 (hNav1.6) (Q9UQD0 whole entry): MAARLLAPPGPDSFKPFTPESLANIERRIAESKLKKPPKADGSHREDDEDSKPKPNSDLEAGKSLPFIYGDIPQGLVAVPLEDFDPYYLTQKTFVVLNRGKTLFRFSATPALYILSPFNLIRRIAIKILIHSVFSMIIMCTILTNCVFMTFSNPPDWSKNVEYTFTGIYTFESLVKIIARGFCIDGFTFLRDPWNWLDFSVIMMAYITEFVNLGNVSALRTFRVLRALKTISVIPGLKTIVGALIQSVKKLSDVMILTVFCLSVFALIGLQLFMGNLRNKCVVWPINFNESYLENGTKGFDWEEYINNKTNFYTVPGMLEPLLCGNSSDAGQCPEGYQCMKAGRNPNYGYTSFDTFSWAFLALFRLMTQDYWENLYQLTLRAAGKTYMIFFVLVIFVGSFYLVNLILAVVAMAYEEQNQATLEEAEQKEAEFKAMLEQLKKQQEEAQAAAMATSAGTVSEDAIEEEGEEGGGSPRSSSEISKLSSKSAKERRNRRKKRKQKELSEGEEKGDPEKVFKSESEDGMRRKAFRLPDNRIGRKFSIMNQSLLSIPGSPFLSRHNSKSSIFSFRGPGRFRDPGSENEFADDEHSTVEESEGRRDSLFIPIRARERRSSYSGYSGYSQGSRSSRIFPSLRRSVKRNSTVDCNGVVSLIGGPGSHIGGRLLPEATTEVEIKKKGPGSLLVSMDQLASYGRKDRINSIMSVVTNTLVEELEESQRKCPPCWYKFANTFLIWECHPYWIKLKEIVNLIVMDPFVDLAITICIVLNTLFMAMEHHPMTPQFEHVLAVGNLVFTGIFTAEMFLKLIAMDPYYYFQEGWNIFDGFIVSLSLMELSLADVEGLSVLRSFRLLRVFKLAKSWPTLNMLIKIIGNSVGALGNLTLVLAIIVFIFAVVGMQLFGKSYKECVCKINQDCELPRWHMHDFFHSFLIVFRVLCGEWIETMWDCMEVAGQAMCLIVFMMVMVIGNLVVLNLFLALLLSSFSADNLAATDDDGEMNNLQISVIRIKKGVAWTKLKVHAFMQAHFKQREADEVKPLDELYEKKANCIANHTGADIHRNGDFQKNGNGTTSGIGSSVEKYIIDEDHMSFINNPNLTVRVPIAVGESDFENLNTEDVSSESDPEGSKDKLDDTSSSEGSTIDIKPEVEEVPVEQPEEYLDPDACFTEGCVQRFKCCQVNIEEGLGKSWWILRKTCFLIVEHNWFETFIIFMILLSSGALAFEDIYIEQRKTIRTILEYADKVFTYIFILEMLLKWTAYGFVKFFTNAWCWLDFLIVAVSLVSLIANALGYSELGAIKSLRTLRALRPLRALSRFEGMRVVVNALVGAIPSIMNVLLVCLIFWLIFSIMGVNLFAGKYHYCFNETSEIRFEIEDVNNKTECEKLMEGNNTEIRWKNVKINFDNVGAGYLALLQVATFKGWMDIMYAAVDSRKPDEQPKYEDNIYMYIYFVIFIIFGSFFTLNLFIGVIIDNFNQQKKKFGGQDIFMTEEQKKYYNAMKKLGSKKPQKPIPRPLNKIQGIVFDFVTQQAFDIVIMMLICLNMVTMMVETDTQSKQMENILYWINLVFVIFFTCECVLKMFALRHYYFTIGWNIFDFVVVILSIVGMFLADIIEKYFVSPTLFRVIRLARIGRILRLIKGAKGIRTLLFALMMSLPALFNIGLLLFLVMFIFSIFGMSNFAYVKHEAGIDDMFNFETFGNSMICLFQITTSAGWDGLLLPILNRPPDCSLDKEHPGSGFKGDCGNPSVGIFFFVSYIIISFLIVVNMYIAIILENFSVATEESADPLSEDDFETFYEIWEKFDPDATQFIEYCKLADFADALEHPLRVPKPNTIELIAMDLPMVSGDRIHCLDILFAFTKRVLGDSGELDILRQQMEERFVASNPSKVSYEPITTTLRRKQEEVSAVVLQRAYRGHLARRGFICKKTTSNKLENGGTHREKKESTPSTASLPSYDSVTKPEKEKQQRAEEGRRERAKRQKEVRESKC
For `FC(F)(F)Oc1ccc(-c2ccc3nnc(C4CC4(F)F)n3n2)cc1` (stereo not drawn) [Compound 46], the “INaL v1.6 (1 μM, % Inhibition)” value was “C (inhibition of greater than 70%)”.

Take `COCc1cc(OC(F)(F)F)ccc1-c1cn2c(C(F)(F)F)nnc2cn1` [Compound 66]: the “INaL v1.6 (1 μM, % Inhibition)” value is “C (inhibition of greater than 70%)”.

Regarding `Fc1cc(-c2cn3c(C(F)F)nnc3cn2)cnc1OCC(F)(F)F` [Compound 68], the “INaL v1.6 (1 μM, % Inhibition)” value was “B (inhibition of between about 30% to about 70%)”.

On to `Fc1cc(-c2cn3c(C(F)(F)F)nnc3cn2)cnc1OC1CC(F)(F)C1` [Compound 84], for which the “INaL v1.6 (1 μM, % Inhibition)” value is given as “C (inhibition of greater than 70%)”.

For the molecule `C[C@@H](Oc1ncc(-c2cn3c(C(F)F)nnc3cn2)cc1F)C(F)(F)F` [Compound 134], the “INaL v1.6 (1 μM, % Inhibition)” value was “C (inhibition of greater than 70%)”.

System in another data set: not given
Experiment: not given
The following applies: rat, in vivo, iv, 0.5 mg/kg.
`C[C@@H](Oc1ncc(-c2cn3c(C(F)F)nnc3cn2)cc1F)C(F)(F)F` [Compound 134] yielded a Clearance of 10.9 mL/min/kg and a T1/2 of 2.6 h.

For the next data set, the target named is CYP1A2 (Homo sapiens (Human), UniProt P05177). Briefly: CYP1A2 inhibition in human liver microsomes. The following applies: microsomes. It counts as in vitro ADME. The method, then:
The specific marker metabolites are measured with LC/MS/MS. The remaining enzymatic activities and inhibitory potency IC50 are determined. Microsomes are removed out of the −80° C. freezer to thaw on ice and 20 μL of the substrates solution added to the corresponding wells. […] Then 158 μL of the HLM working solution was added to all wells of the incubation plate. The plate was pre-warmed for about 10 min using a 37° C. water bath. Then 20 μL of the NADPH cofactor solution was added to all incubation wells, mixed and incubated for 10 minutes at 37° C. water bath. The reaction is terminated by adding 400 μL cold stop solution (200 ng/mL Tolbutamide and 200 ng/mL Labetalol in ACN). […] Finally 200 μL of the supernatant was transferred to 100 μL HPLC water, shaken for 10 min and analyzed by LC/MS/MS.
In general, IC50 refers to the concentration that inhibits the measured activity by half. Molecule `FC(F)(F)c1ccc(-c2ccc3nnc(C(F)(F)F)n3n2)cc1` [Compound 1] gave an IC50 of less than 1000 nM.

Consider `FC(F)c1nnc2cnc(-c3ccc(OC(F)(F)F)cc3)cn12` [Compound 47], for which the IC50 was less than 1000 nM.

As to `COc1cc(OC(F)(F)F)ccc1-c1cn2c(C(F)F)nnc2cn1` [Compound 48], the IC50 was less than 1000 nM.

For the molecule `FC(F)(F)c1ccc(-c2cn3c(C(F)(F)F)nnc3cn2)cc1` [Compound 62], the IC50 was less than 1000 nM.

As to `COCc1cc(OC(F)(F)F)ccc1-c1cn2c(C(F)(F)F)nnc2cn1` [Compound 66], the IC50 lay in the range of 1000 to 15000 nM.

In turn, `COc1cc(OC(F)(F)F)ccc1-c1cn2c(C(F)(F)F)nnc2cn1` [Compound 70] registered an IC50 of less than 1000 nM.

Consider `Fc1cc(C(F)(F)F)ccc1-c1cn2c(C(F)(F)F)nnc2cn1` [Compound 76], for which the half-inhibitory concentration (IC50) is less than 1000 nM.

As to `Fc1cc(-c2cn3c(C(F)(F)F)nnc3cn2)ccc1OC(F)(F)F` [Compound 79], the IC50 was less than 1000 nM.

Regarding `COC(F)(F)c1nnc2cnc(-c3ccc(OC(F)(F)F)cc3)cn12` [Compound 97], the 50% inhibitory concentration (IC50) was less than 1000 nM.

For the molecule `Cc1cc(-c2ccc3nnc(C(F)(F)F)n3n2)ccc1C(F)(F)F` [Compound 98], the IC50 was less than 1000 nM.

In the case of `FC(F)Oc1ccc(-c2ccc3nnc(C(F)(F)F)n3n2)cc1` [Compound 116], the IC50 is less than 1000 nM.

With `FC(F)(F)OCc1ccc(-c2ccc3nnc(C(F)(F)F)n3n2)cc1` [Compound 118], the IC50 was less than 1000 nM.

`C[C@@H](Oc1ncc(-c2cn3c(C(F)F)nnc3cn2)cc1F)C(F)(F)F` [Compound 134] returned an IC50 of more than 30000 nM.

Staying with this data set, now noted: pooled human liver microsomes, substrate Phenacetin; read-out: CYP1A2 IC50 mean.
Consider `FC(F)(F)Oc1ccc(-c2ccc3nnc(C4CC4(F)F)n3n2)cc1` (stereo not drawn) [Compound 46], for which the IC50 lay in the range of 1000 to 15000 nM.

As for `FC(F)(F)Oc1ccc(-c2cn3c(C(F)(F)F)nnc3cn2)cc1` [Compound 56], the IC50 was less than 1000 nM.

In the case of `Fc1cc(-c2cn3c(C(F)F)nnc3cn2)cnc1OCC(F)(F)F` [Compound 68], the IC50 was more than 30000 nM.

Take `Fc1cc(-c2cn3c(C(F)(F)F)nnc3cn2)cnc1OC1CC(F)(F)C1` [Compound 84]: the IC50 lay in the range of 1000 to 15000 nM.

System in another data set: not listed separately
The data set can be described thus: PK rat clearance experiment. The following applies: male Sprague-Dawley rats, single intravenous bolus 0.5 mg/kg, plasma.
Procedure: The IV dosing solution was prepared freshly on the dosing day. Test article (0.5 mg/kg) was prepared in a vehicle, for example, consisting of 5% DMSO/5% solutol/90% water. The concentrations of test article in all dosing solutions were determined by HPLC/UV. Three male Sprague-Dawley rats were used in this study. The animals were confirmed healthy before being assigned to the study. Each animal was given a unique identification number which was marked on the tail or the ear, and written on the cage card. All animals were fasted overnight before dosing and the food was returned at 4 hours post dosing. Water was provided to all animals ad libitum during the fasting period. Animals were weighed prior to dose administration on the day of dosing for calculating the actual dose volume. The body weights were in the range from 212 g to 223 g for males. All animals received test article by single intravenous bolus administration at 0.5 mg/kg. Approximately 0.2 mL blood was collected at each time point via jugular vein from each study animal. […] All blood samples were transferred into pre-labeled plastic micro centrifuge tubes and mixed with the pre-loaded anti-coagulant K2EDTA (5 μL, 0.5 M). Plasma samples were then prepared by centrifuging the blood samples. All plasma samples were then quickly frozen over dry ice and kept at −60° C. or lower until LC/MS/MS analysis. The concentrations of test article in plasma were determined by using a quantitative bioanalytical LC/MS/MS method. The lower limit of quantitation (LLOQ) for test article in plasma was 1 ng/mL, and the upper limit of quantitation (ULOQ) in plasma was 3000 ng/mL. The plasma concentration of test article in rats was subjected to a non compartmental pharmacokinetic analysis by using the Phoenix WinNonlin software (version 6.3, Pharsight, Mountain View, CA).
The linear/log trapezoidal rule was applied in obtaining the PK parameters.
In turn, `FC(F)(F)Oc1ccc(-c2ccc3nnc(C4CC4(F)F)n3n2)cc1` (stereo not drawn) [Compound 46] gave a Clearance of 4.7 mL/min/kg and a T1/2 of 4.5 h.

In the case of `Fc1cc(-c2cn3c(C(F)F)nnc3cn2)cnc1OCC(F)(F)F` [Compound 68], the Clearance is 15.8 mL/min/kg and the T1/2 amounted to 1.5 h.

`Fc1cc(-c2cn3c(C(F)(F)F)nnc3cn2)cnc1OC1CC(F)(F)C1` [Compound 84] yielded a Clearance of 21.9 mL/min/kg and a T1/2 of 2.1 h.
